Patent US11091460B2, “Syk inhibitor and use method therefor” (CHIA TAI TIANQING PHARMACEUTICAL GROUP CO., LTD., priority 2017, dated 2021)

These compounds were tested against T1, SYK kinase (Homo sapiens, UniProt P43405) (assay: In vitro test of the inhibition effect on SYK kinase (HTRF)). Conditions: tyrosine kinase 0.0156 ng/μL, substrate 0.2 uM, ATP 2 uM, 23° C. 1 hour, read-out: Inhibit SYK kinase IC50.
T1 construct: purchased Invitrogen PV3857
Type: biochemical
Procedure: Experimental Example 1: In Vitro Test of the Inhibition Effect of the Example Compounds on SYK Kinase
Adenosine triphosphate concentration was controlled at 2 uM. • 4) Loaded with a Multidrop automatic dispenser, and a mixture of tyrosinase solution and tyrosine kinase-substrate-biotin/adenosine triphosphate was added in an amount of 5 ul per well, and incubated at 23° C. for 1 hour. • c) Detection phase: • 1) Added 13.33 mL of ethylenediaminetetraacetic acid solution to the Detection Buffer in the kit, added the specified amount of […] (Eu)-labeled antibody and streptavidin XL-665, and prepared the detection solution. • 2) Loaded with a Multidrop automatic dispenser, and 10 uL of the detection solution per well, incubated at 23° C. for 1 hour. It terminated the reaction of the enzyme and substrate mixture. • 3) Reading after centrifugation on a multi-function microplate reader, • d) Data Analysis: Analyzed the data with XL-Fit, and calculated the IC50 value of the compound.
In the case of Cn1c(=O)c(Nc2ccc(N3CCC(O)(C(F)(F)F)CC3)cn2)cc2cc(-c3cc[nH]n3)ccc21 [Example 5], the IC50 is reported as 58.4 nM. With C[C@@H]1COCCN1c1ccc(Nc2cc3c(F)c(-c4cc[nH]n4)ccc3n(C)c2=O)nc1 [Example 13, (R) 5-fluoro-1-methyl-3-((5-(3-methylmorpholine)pyridin-2-yl)amino)-6-(1H-pyrazol-3-yl)quinoline-2(1H)-one] the IC50 was 923 nM. C[C@H]1COCCN1c1ccc(Nc2cc3c(F)c(-c4cc[nH]n4)ccc3n(C)c2=O)nc1 [Example 14, (S) 5-fluoro-1-methyl-3-((5-(3-methylmorpholine)pyridin-2-yl)amino)-6-(1H-pyrazol-3-yl)quinoline-2(1H)-one] gave an IC50 of 237 nM. In the case of Cn1c(=O)c(Nc2ccc(C3(O)COC3)cn2)cc2c(F)c(-c3cc[nH]n3)ccc21 [Example 22, 5-Fluoro-3-[[5-(3-hydroxyoxetan-3-yl)pyridin-2-yl]amino]-1-methyl-6-(1H-pyrazol-3-yl)quinoline-2(1H)-one], the IC50 is reported as 38.5 nM. Cn1c(=O)c(Nc2ccc(N3CCOCC3)cc2)nc2ccc(-c3cc[nH]n3)cc21 [Example 27, 1-Methyl-3-((4-morpholinephenyl)amino)-7-(1H-pyrazol-3-yl) quinoxaline-2(1H)-one] showed an IC50 of 78 nM. Compound Cn1c(=O)c(Nc2ccc(N3CCOCC3)cc2)nc2ccc(-c3ccncc3)cc21 [Example 28, 1-Methyl-3-((4-morpholinephenyl)amino)-7-(pyridin-4-yl)quinoxaline-2(1H)-one] has an IC50 of 230 nM. For Cn1c(=O)c(Nc2ccc(N3CCOCC3)cc2)nc2ccc(-c3ncc[nH]3)cc21 [Example 30, 7-(1H-imidazol-2-yl)-1-methyl-3-((4-morpholinephenyl)amino)quinoxaline-2(1H)-one], the IC50 was 461 nM. For Cn1c(=O)c(Nc2ccc(N3CCOCC3)cc2)nc2ccc(-c3nccs3)cc21 [Example 32, 1-Methyl-3-((4-morpholinephenyl)amino)-7-(thiazol-2-yl)quinoxaline-2(1H)-one], the IC50 was 212 nM. CN1CCN(S(=O)(=O)c2ccc(Nc3nc4ccc(-c5cn[nH]c5)cc4n(C)c3=O)cc2)CC1 [Example 34, 1-Methyl-3-((4-((4-methylpiperazin-1-yl)sulfonyl)phenyl)amino)-7-(1H-pyrazol-4-yl)quinoxaline-2(1H)-one] showed an IC50 of 26 nM. Work on CCS(=O)(=O)N1CCN(c2ccc(Nc3nc4ccc(-c5cn[nH]c5)cc4n(C)c3=O)cc2)CC1 [Example 36, 3-((4-(4-(Ethylsulfonyl)piperazin-1-yl)phenyl)amino)-1-methyl-7-(1H-pyrazol-4-yl)quinoxaline-2(1H)-one] yielded an IC50 of 6.4 nM. Work on Cn1c(=O)c(Nc2cccc(N3CCN(S(C)(=O)=O)CC3)c2)nc2ccc(-c3cn[nH]c3)cc21 [Example 40, 1-Methyl-3-((3-(4-(methylsulfonyl)piperazin-1-yl)phenyl)amino)-7-(1H-pyrazol-4-yl)quinoxaline-2(1H)-one] yielded an IC50 of 163 nM. Work on Cn1c(=O)c(Nc2ccc(N3CCOCC3)cc2)nc2cc(Cl)c(-c3cn[nH]c3)cc21 [Example 42, 6-Chloro-1-methyl-3-((4-morpholinephenyl)amino)-7-(1H-pyrazol-4-yl)quinoxaline-2(1H)-one] yielded an IC50 of 30 nM. Work on Cn1c(=O)c(Nc2ccc(N3CCOCC3)cc2)nc2ccc(-c3cn[nH]c3)c(Cl)c21 [Example 43, 8-Chloro-1-methyl-3-((4-morpholinephenyl)amino)-7-(1H-pyrazol-4-yl)quinoxaline-2(1H)-one] yielded an IC50 of 116 nM. In the case of Cn1c(=O)c(Nc2ccc(N3CCOCC3)cc2F)nc2ccc(-c3cn[nH]c3)cc21 [Example 47, 3-((2-Fluoro-4-morpholinephenyl)amino)-1-methyl-7-(1H-pyrazol-4-yl)quinoxaline-2(1H)-one], the IC50 is reported as 242 nM. Compound Cc1cc(Nc2nc3ccc(-c4cn[nH]c4)cc3n(C)c2=O)ccc1N1CCOCC1 [Example 49] has an IC50 of 22.5 nM. Compound Cn1c(=O)c(Nc2ccc(N3CCOCC3)c(Cl)c2)nc2ccc(-c3cn[nH]c3)cc21 [Example 50, 3-((3-Chloro-4-morpholinephenyl)amino)-1-methyl-7-(1H-pyrazol-4-yl)quinoxaline-2(1H)-one] has an IC50 of 49 nM. Compound COc1cc(Nc2nc3ccc(-c4cn[nH]c4)cc3n(C)c2=O)ccc1N1CCOCC1 [Example 51, 3-((3-Methoxy-4-morpholinephenyl)amino)-1-methyl-7-(1H-pyrazol-4-yl)quinoxaline-2(1H)one] has an IC50 of 12.9 nM. Cn1c(=O)c(Nc2ccc(N3CCOCC3)cn2)nc2ccc(-c3cn[nH]c3)cc21 [Example 52, 1-Methyl-3-((5-morpholinepyridin-2-yl)amino)-7-(1H-pyrazol-4-yl)quinoxaline-2(1H)one] showed an IC50 of 29.7 nM. In the case of Cn1c(=O)c(Nc2ccc(N3CCOCC3)nc2)nc2ccc(-c3cn[nH]c3)cc21 [Example 53, 1-Methyl-3-((6-morpholinepyridin-3-yl)amino)-7-(1H-pyrazol-4-yl) quinoxaline-2(1H)one], the IC50 is reported as 39.3 nM. Cn1c(=O)c(Nc2ccc(NC3CCOCC3)nc2)nc2ccc(-c3cn[nH]c3)cc21 [Example 56, 1-Methyl-7-(1H-pyrazol-4-yl)-3-((6-((tetrahydro-2H-pyran-4-yl)amino)pyridin-3-yl)amino)quinoxaline-2(1H)-one] showed an IC50 of 29.2 nM. Compound Cn1c(=O)c(Nc2ccc(N3CCOCC3)cc2)nc2ccc(-c3cnc(N)[nH]3)cc21 [Example 57, 7-(2-Amino-1H-imidazol-5-yl)-1-methyl-3-((4-morpholinephenyl)amino)quinoxaline-2(1H)-one] has an IC50 of 62.9 nM. Cn1c(=O)c(Nc2ccc(N3CCOCC3)cc2)nc2ccc(-c3cnc(N)s3)cc21 [Example 58, 7-(2-Aminothiazol-5-yl)-1-methyl-3-((4-morpholinephenyl)amino)quinoxaline-2(1H)-one] showed an IC50 of 197 nM.
